Reference: patent publication US11020395B2, “Cycloalkyl substituted triazole compounds as agonists of the APJ receptor” (AMGEN INC., priority 2016, dated 2021)

Molecular target: human APJ receptor (Homo sapiens (Human), UniProt P35414)
Test: [35S]GTPγS binding assay on membranes from CHO cells stably expressing human APJ receptor
Type: biochemical
Conditions: [35S]GTPγS SPA, read-out: Activity hAPJ SPA EC50 IP
Method in brief: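 Agonist-stimulated [35S]GTPγS binding measured on membranes of a stable human APJ CHO line, 90 min at room temperature, with GDP, MgCl2 and NaCl levels optimized beforehand. Means of independent runs fitted by non-linear regression to give EC50.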

Chain of human APJ receptor (P35414 whole entry): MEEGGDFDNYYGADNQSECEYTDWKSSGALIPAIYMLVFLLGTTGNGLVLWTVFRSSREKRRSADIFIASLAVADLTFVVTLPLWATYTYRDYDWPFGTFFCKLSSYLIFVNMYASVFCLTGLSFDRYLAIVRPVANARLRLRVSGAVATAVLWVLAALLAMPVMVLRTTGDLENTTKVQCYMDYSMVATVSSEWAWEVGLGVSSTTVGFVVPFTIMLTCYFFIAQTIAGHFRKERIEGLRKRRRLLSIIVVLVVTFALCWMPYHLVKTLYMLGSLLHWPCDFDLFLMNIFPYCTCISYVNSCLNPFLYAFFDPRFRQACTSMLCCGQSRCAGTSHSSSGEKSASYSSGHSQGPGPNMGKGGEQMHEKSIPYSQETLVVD

Molecule | EC50 [nM]
COc1cccc(OC)c1-n1c(NS(=O)(=O)[C@@H](C)[C@H](OC)c2ncc(Cl)cn2)nnc1[C@H]1C[C@H](Cl)C1 (single isomer, unassigned) [Example 153.0, (1R,2S)-1-(5-chloropyrimidin-2-yl)-N-(4-(2,6-dimethoxyphenyl)-5-((1r,3S)-3-chlorocyclobutyl)-4H-1,2,4-triazol-3-yl)-1-methoxypropane-2-sulfonamide or (1R,2S)-1-(5-chloropyrimidin-2-yl)-N-(4-(2,6-dimethoxyphenyl)-5-((1s,3R)-3-chlorocyclobutyl)-4H-1,2,4-triazol-3-yl)-1-methoxypropane-2-sulfonamide] | 1.5
COc1ncnc(OC)c1-n1c(NS(=O)(=O)[C@@H](C)[C@H](OC)c2ncc(C)cn2)nnc1C1CC2(CC2)C1 [Example 200.0] | 4.6
COc1ncnc(OC)c1-n1c(NS(=O)(=O)[C@@H](C)[C@H](C)c2ncc(Cl)cn2)nnc1C1CCC1 [Example 85.0, (2S,3R)-3-(5-chloro-2-pyrimidinyl)-N-(5-cyclobutyl-4-(4,6-dimethoxy-5-pyrimidinyl)-4H-1,2,4-triazol-3-yl)-2-butanesulfonamide] | 1.7
COc1cccc(OC)c1-n1c(NS(=O)(=O)[C@@H](C)[C@@H](OC(C)C)c2ncc(C)cn2)nnc1[C@H]1C2CC1[C@@H]2O [Example 228.0, (1S,2S)-N-(4-(2,6-dimethoxyphenyl)-5-(cis-4-hydroxybicyclo[1.1.1]pentan-2-yl)-4H-1,2,4-triazol-3-yl)-1-isopropoxy-1-(5-methylpyrimidin-2-yl)propane-2-sulfonamide and (1S,2S)-N-(4-(2,6-dimethoxyphenyl)-5-(trans-4-hydroxybicyclo[1.1.1]pentan-2-yl)-4H-1,2,4-triazol-3-yl)-1-isopropoxy-1-(5-methylpyrimidin-2-yl)propane-2-sulfonamide] | 190
COc1ncnc(OC)c1-n1c(NS(=O)(=O)[C@@H](C)[C@H](C)c2ncc(C)cn2)nnc1C1CCCC1 [Example 18.0, (2S,3R)-N-(5-cyclopentyl-4-(4,6-dimethoxypyrimidin-5-yl)-4H-1,2,4-triazol-3-yl)-3-(5-methylpyrimidin-2-yl)butane-2-sulfonamide] | 2.1
COc1cccc(OC)c1-n1c(NS(=O)(=O)CCc2ncc(Cl)cn2)nnc1C1CCC1 [Example 210.0, 2-(5-chloro-2-pyrimidin-yl)-N-(5-cyclobutyl-4-(2,6-dimethoxyphenyl)-4H-1,2,4-triazol-3-yl)ethanesulfonamide] | 15
COc1cccc(OC)c1-n1c(NS(=O)(=O)[C@@H](C)[C@H](OC)c2ncc(Cl)cn2)nnc1[C@H]1C[C@H](OC)C1 (single isomer, unassigned) [Example 155.0, (1R,2S)-1-(5-chloropyrimidin-2-yl)-N-(4-(2,6-dimethoxyphenyl)-5-((1r,3S)-3-methoxycyclobutyl)-4H-1,2,4-triazol-3-yl)-1-methoxypropane-2-sulfonamide or (1R,2S)-1-(5-chloropyrimidin-2-yl)-N-(4-(2,6-dimethoxyphenyl)-5-((1s,3R)-3-methoxycyclobutyl)-4H-1,2,4-triazol-3-yl)-1-methoxypropane-2-sulfonamide] | 9.4
COc1cccc(OC)c1-n1c(NS(=O)(=O)[C@@H](C)[C@H](OC)c2ncc(Cl)cn2)nnc1C12CC(C1)C2 [Example 217.0] | 7.4
COc1ncnc(OC)c1-n1c(NS(=O)(=O)[C@@H](C)[C@H](OC)c2ncc(C)cn2)nnc1C1CCC1 [Example 90.0, (1R,2S)-N-(5-cyclobutyl-4-(4,6-dimethoxypyrimidin-5-yl)-4H-1,2,4-triazol-3-yl)-1-methoxy-1-(5-methylpyrimidin-2-yl)propane-2-sulfonamide] | 9.2
COc1cccc(OC)c1-n1c(NS(=O)(=O)[C@@H](C)[C@H](OC)c2ncc(Cl)cn2)nnc1[C@H]1C[C@H](F)C1 (single isomer, unassigned) [Example 152.0, (1R,2S)-1-(5-chloropyrimidin-2-yl)-N-(4-(2,6-dimethoxyphenyl)-5-((1r,3S)-3-fluorocyclobutyl)-4H-1,2,4-triazol-3-yl)-1-methoxypropane-2-sulfonamide or (1R,2S)-1-(5-chloropyrimidin-2-yl)-N-(4-(2,6-dimethoxyphenyl)-5-((1s,3R)-3-fluorocyclobutyl)-4H-1,2,4-triazol-3-yl)-1-methoxypropane-2-sulfonamide] | 4.2
COc1cccc(OC)c1-n1c(NS(=O)(=O)[C@@H](C)[C@H](OC)c2ncc(Cl)cn2)nnc1[C@H]1C[C@H](C(F)(F)F)C1 (single isomer, unassigned) [Example 149.0, (1R,2S)-1-(5-chloropyrimidin-2-yl)-N-(4-(2,6-dimethoxyphenyl)-5-((1r,3S)-3-(trifluoromethyl)cyclobutyl)-4H-1,2,4-triazol-3-yl)-1-methoxypropane-2-sulfonamide or (1R,2S)-1-(5-chloropyrimidin-2-yl)-N-(4-(2,6-dimethoxyphenyl)-5-((1s,3R)-3-(trifluoromethyl)cyclobutyl)-4H-1,2,4-triazol-3-yl)-1-methoxypropane-2-sulfonamide] | 4.2
(1R,2S)-1-(5-chloropyrimidin-2-yl)-N-(4-(2,6-dimethoxyphenyl)-5-((S)-spiro[2.2]pentan-1-yl)-4H-1,2,4-triazol-3-yl)-1-methoxypropane-2-sulfonamide or (1R,2S)-1-(5-chloropyrimidin-2-yl)-N-(4-(2,6-dimethoxyphenyl)-5-((R)-spiro[2.2]pentan-1-yl)-4H-1,2,4-triazol-3-yl)-1-methoxypropane-2-sulfonamide [Example 223.0] | 1.2
COc1cccc(OC)c1-n1c(NS(=O)(=O)[C@@H](C)[C@H](OC)c2cnc(C)cn2)nnc1C1CCC1 [Example 138.0] | 27
COc1cccc(OC)c1-n1c(NS(=O)(=O)[C@@H](C)[C@H](OC)c2ncc(Cl)cn2)nnc1C1CCCC1 [Example 241.0, (1R,25)-1-(5-chloro-2-pyrimidinyl)-N-(5-cyclopentyl-4-(2,6-dimethoxyphenyl)-4H-1,2,4-triazol-3-yl)-1-methoxy-2-propanesulfonamide] | 1.2
COc1cccc(OC)c1-n1c(NS(=O)(=O)[C@@H](C)[C@H](C)c2ncc(C)cn2)nnc1C1(c2ccccn2)CC1 [Example 126.0] | 4200
COc1cccc(OC)c1-n1c(NS(=O)(=O)[C@@H](C)[C@H](OC)c2ncc(Cl)cn2)nnc1[C@H]1CCC1(F)F (single isomer, unassigned) [Example 159.0, (1R,2S)-1-(5-chloropyrimidin-2-yl)-N-(5-((R)-2,2-difluorocyclobutyl)-4-(2,6-dimethoxyphenyl)-4H-1,2,4-triazol-3-yl)-1-methoxypropane-2-sulfonamide or (1R,2S)-1-(5-chloropyrimidin-2-yl)-N-(5-((S)-2,2-difluorocyclobutyl)-4-(2,6-dimethoxyphenyl)-4H-1,2,4-triazol-3-yl)-1-methoxypropane-2-sulfonamide] | 8
COc1ncnc(OC)c1-n1c(NS(=O)(=O)[C@@H](C)[C@H](OC)c2ncc(Cl)cn2)nnc1C1CCCCC1 [Example 6.0, (1R,2S)-1-(5-chloro-2-pyrimidinyl)-N-(5-cyclohexyl-4-(4,6-dimethoxy-5-pyrimidinyl)-4H-1,2,4-triazol-3-yl)-1-methoxy-2-propanesulfonamide] | 7.5
COc1ncnc(OC)c1-n1c(NS(=O)(=O)[C@@H](C)[C@H](OC)c2ncc(Cl)cn2)nnc1[C@H]1CC1(F)F (single isomer, unassigned) [Example 101.0, (1R,2S)-1-(5-chloropyrimidin-2-yl)-N-(5-((R)-2,2-difluorocyclopropyl)-4-(4,6-dimethoxypyrimidin-5-yl)-4H-1,2,4-triazol-3-yl)-1-methoxypropane-2-sulfonamide or (1R,2S)-1-(5-chloropyrimidin-2-yl)-N-(5-((S)-2,2-difluorocyclopropyl)-4-(4,6-dimethoxypyrimidin-5-yl)-4H-1,2,4-triazol-3-yl)-1-methoxypropane-2-sulfonamide] | 60
COc1cccc(OC)c1-n1c(NS(=O)(=O)[C@@H](C)[C@H](OC)c2ncc(Cl)cn2)nnc1C1CCC1C#N (single isomer, unassigned) [Example 170.0, (1R,2S)-1-(5-chloropyrimidin-2-yl)-N-(5-((1R,2R)-2-cyanocyclobutyl)-4-(2,6-dimethoxyphenyl)-4H-1,2,4-triazol-3-yl)-1-methoxypropane-2-sulfonamide or (1R,2S)-1-(5-chloropyrimidin-2-yl)-N-(5-((1R,2R)-2-cyanocyclobutyl)-4-(2,6-dimethoxyphenyl)-4H-1,2,4-triazol-3-yl)-1-methoxypropane-2-sulfonamide] | 18
COc1ncnc(OC)c1-n1c(NS(=O)(=O)[C@@H](C)[C@H](OC)c2ncc(Cl)cn2)nnc1[C@H]1CC[C@@H](C(F)F)CC1 (single isomer, unassigned) [Example 144.0, (1R,2S)-1-(5-chloro-2-pyrimidinyl)-N-(5-(cis-4-(difluoromethyl)cyclohexyl)-4-(4,6-dimethoxy-5-pyrimidinyl)-4H-1,2,4-triazol-3-yl)-1-methoxy-2-propanesulfonamide or (1R,2S)-1-(5-chloro-2-pyrimidinyl)-N-(5-(trans-4-(difluoromethyl)cyclohexyl)-4-(4,6-dimethoxy-5-pyrimidinyl)-4H-1,2,4-triazol-3-yl)-1-methoxy-2-propanesulfonamide] | 620
COc1cccc(OC)c1-n1c(NS(=O)(=O)[C@@H](C)[C@H](OC)c2ncc(Cl)cn2)nnc1[C@H]1C[C@H](OC)C1 (single isomer, unassigned) [Example 156.0, (1R,2S)-1-(5-chloropyrimidin-2-yl)-N-(4-(2,6-dimethoxyphenyl)-5-((1r,3S)-3-methoxycyclobutyl)-4H-1,2,4-triazol-3-yl)-1-methoxypropane-2-sulfonamide or (1R,2S)-1-(5-chloropyrimidin-2-yl)-N-(4-(2,6-dimethoxyphenyl)-5-((1s,3R)-3-methoxycyclobutyl)-4H-1,2,4-triazol-3-yl)-1-methoxypropane-2-sulfonamide] | 11
